Assay results reported in ChEMBL document CHEMBL1275483, “Staphylococcus aureus cell wall stress stimulon gene-lacZ fusion strains: potential for use in screening for cell wall-active antimicrobials” (2008).
In brackets after ≈: the same amount, converted by molar mass. One block for each compound: values may come before it.

What was measured:
Format in all cases: functional
Staphylococcus aureus [1] = assay: Induction of Ppbp2::lacZ gene expression in Staphylococcus aureus SH1000 at 3 ug/ml after 2 hrs by beta-galactosidase reporter gene assay relative to untreated control
Staphylococcus aureus [2] = assay: Induction of PsgtB::lacZ gene expression in Staphylococcus aureus SH1000 at 3 ug/ml after 2 hrs by beta-galactosidase reporter gene assay relative to untreated control
Staphylococcus aureus [3] = assay: Induction of PlytR::lacZ gene expression in Staphylococcus aureus SH1000 at 3 ug/ml after 2 hrs by beta-galactosidase reporter gene assay relative to untreated control
Staphylococcus aureus [4] = assay: Induction of PtcaA::lacZ gene expression in Staphylococcus aureus SH1000 at 3 ug/ml after 2 hrs by beta-galactosidase reporter gene assay relative to untreated control
Staphylococcus aureus [5] = assay: Induction of PvraSr::lacZ gene expression in Staphylococcus aureus SH1000 at 3 ug/ml after 2 hrs by beta-galactosidase reporter gene assay relative to untreated control
Staphylococcus aureus [6] = assay: Antimicrobial activity against beta-lactamase producing Staphylococcus aureus SH1000
Staphylococcus aureus [7] = assay: Induction of PvraSr::lacZ gene expression in Staphylococcus aureus SH1000 at 0.05 ug/ml after 2 hrs by beta-galactosidase reporter gene assay relative to untreated control
Staphylococcus aureus [8] = assay: Induction of PsgtB::lacZ gene expression in Staphylococcus aureus SH1000 at 0.05 ug/ml after 2 hrs by beta-galactosidase reporter gene assay relative to untreated control
Staphylococcus aureus [9] = assay: Induction of PtcaA::lacZ gene expression in Staphylococcus aureus SH1000 at 0.05 ug/ml after 2 hrs by beta-galactosidase reporter gene assay relative to untreated control
Staphylococcus aureus [10] = assay: Induction of Ppbp2::lacZ gene expression in Staphylococcus aureus SH1000 at 0.05 ug/ml after 2 hrs by beta-galactosidase reporter gene assay relative to untreated control
Staphylococcus aureus [11] = assay: Induction of PlytR::lacZ gene expression in Staphylococcus aureus SH1000 at 0.05 ug/ml after 2 hrs by beta-galactosidase reporter gene assay relative to untreated control
Staphylococcus aureus [12] = assay: Induction of PvraSr::lacZ gene expression in Staphylococcus aureus SH1000 at 1 ug/ml after 2 hrs by beta-galactosidase reporter gene assay relative to untreated control
Staphylococcus aureus [13] = assay: Induction of Ppbp2::lacZ gene expression in Staphylococcus aureus SH1000 at 1 ug/ml after 2 hrs by beta-galactosidase reporter gene assay relative to untreated control
Staphylococcus aureus [14] = assay: Induction of PsgtB::lacZ gene expression in Staphylococcus aureus SH1000 at 1 ug/ml after 2 hrs by beta-galactosidase reporter gene assay relative to untreated control
Staphylococcus aureus [15] = assay: Induction of PlytR::lacZ gene expression in Staphylococcus aureus SH1000 at 1 ug/ml after 2 hrs by beta-galactosidase reporter gene assay relative to untreated control
Staphylococcus aureus [16] = assay: Induction of PtcaA::lacZ gene expression in Staphylococcus aureus SH1000 at 1 ug/ml after 2 hrs by beta-galactosidase reporter gene assay relative to untreated control
Staphylococcus aureus [17] = assay: Induction of PsgtB::lacZ gene expression in Staphylococcus aureus SH1000 at 2 ug/ml after 2 hrs by beta-galactosidase reporter gene assay relative to untreated control
Staphylococcus aureus [18] = assay: Induction of PtcaA::lacZ gene expression in Staphylococcus aureus SH1000 at 2 ug/ml after 2 hrs by beta-galactosidase reporter gene assay relative to untreated control
Staphylococcus aureus [19] = assay: Induction of PlytR::lacZ gene expression in Staphylococcus aureus SH1000 at 2 ug/ml after 2 hrs by beta-galactosidase reporter gene assay relative to untreated control
Staphylococcus aureus [20] = assay: Induction of Ppbp2::lacZ gene expression in Staphylococcus aureus SH1000 at 2 ug/ml after 2 hrs by beta-galactosidase reporter gene assay relative to untreated control
Staphylococcus aureus [21] = assay: Induction of PvraSr::lacZ gene expression in Staphylococcus aureus SH1000 at 2 ug/ml after 2 hrs by beta-galactosidase reporter gene assay relative to untreated control

MIC (Staphylococcus aureus [6]): 0.5 mg/L (≈ 1.55 µM)
Compound: O=C(N[C@H](CO)[C@H](O)c1ccc([N+](=O)[O-])cc1)C(Cl)Cl [CHLORAMPHENICOL]
fold change (FC) (Staphylococcus aureus [1]): 0.94
fold change (FC) (Staphylococcus aureus [2]): 0.93
fold change (FC) (Staphylococcus aureus [3]): 1.07
fold change (FC) (Staphylococcus aureus [4]): 1.04
fold change (FC) (Staphylococcus aureus [5]): 0.88

MIC (Staphylococcus aureus [6]): 0.05 mg/L (≈ 0.0608 µM)
Compound: CO[C@H]1/C=C/O[C@@]2(C)Oc3c(C)c(O)c4c(O)c(c(/C=N/N5CCN(C)CC5)c(O)c4c3C2=O)NC(=O)/C(C)=C\C=C\[C@H](C)[C@H](O)[C@@H](C)[C@@H](O)[C@@H](C)[C@H](OC(C)=O)[C@@H]1C [RIFAMPIN]
fold change (FC) (Staphylococcus aureus [7]): 1.2
fold change (FC) (Staphylococcus aureus [8]): 1.19
fold change (FC) (Staphylococcus aureus [9]): 0.99
fold change (FC) (Staphylococcus aureus [10]): 1.9
fold change (FC) (Staphylococcus aureus [11]): 0.98

Compound: C=C(NC(=O)[C@@H](NC(=O)[C@H](Cc1cnc[nH]1)NC(=O)[C@@H](NC(=O)[C@H](CO)NC(=O)[C@@H]1CS[C@@H](C)[C@H]2NC(=O)C(=C)NC(=O)[C@H](NC(=O)[C@H](CCCCN)NC(=O)[C@H](CCSC)NC(=O)[C@H](CC(N)=O)NC(=O)[C@@H]3CS[C@@H](C)[C@@H](NC(=O)[C@H](CCCNN)NC(=O)[C@@H]4CS[C@@H](C)[C@@H](NC(=O)[C@@H]5CSC[C@@H](NC(=O)/C(=C\C)NC(=O)[C@@H](N)[C@@H](C)CC)C(=O)N[C@@H]([C@@H](C)CC)C(=O)NC(=C)C(=O)N[C@@H]([C@@H](C)CC)C(=O)N5)C(=O)N5CCC[C@H]5C(=O)NCC(=O)N4)C(=O)NCC(=O)N[C@@H](C)C(=O)N[C@@H]([C@@H](C)CC)C(=O)N[C@@H](CCSC)C(=O)NCC(=O)N3)[C@H](C)SC[C@H](NC2=O)C(=O)N[C@H](Cc2cnc[nH]2)C(=O)N1)[C@@H](C)CC)C(C)C)C(=O)N[C@@H](CCCCN)C(=O)O [NISIN]
fold change (FC) (Staphylococcus aureus [12]): 0.57
fold change (FC) (Staphylococcus aureus [13]): 1.02
fold change (FC) (Staphylococcus aureus [14]): 1.02
fold change (FC) (Staphylococcus aureus [15]): 1.21
fold change (FC) (Staphylococcus aureus [16]): 0.97

Compound: CN(C)[C@@H]1C(O)=C(C(N)=O)C(=O)[C@@]2(O)C(O)=C3C(=O)c4c(O)cccc4[C@@](C)(O)[C@H]3C[C@@H]12 [TETRACYCLINE]
fold change (FC) (Staphylococcus aureus [17]): 0.4
fold change (FC) (Staphylococcus aureus [18]): 0.53
fold change (FC) (Staphylococcus aureus [19]): 0.5
fold change (FC) (Staphylococcus aureus [20]): 0.52
fold change (FC) (Staphylococcus aureus [21]): 0.52
MIC (Staphylococcus aureus [6]): 0.5 mg/L (≈ 1.13 µM)

Compound: COc1cc(Cc2cnc(N)nc2N)cc(OC)c1OC [TRIMETHOPRIM]
fold change (FC) (Staphylococcus aureus [12]): 0.9
fold change (FC) (Staphylococcus aureus [13]): 0.88
fold change (FC) (Staphylococcus aureus [14]): 1.19
fold change (FC) (Staphylococcus aureus [15]): 0.92
fold change (FC) (Staphylococcus aureus [16]): 1.24
